Laboratory results from article PMC5218480 (PLoS ONE, 2017).

System: MV-4-11 cells
Test: Gene expression microarray analysis (Affymetrix PrimeView) and GSEA
Type: cell-based, human
Design: RFU PODN (11730768_x_at) / Fold change /veh PODN (11730768_x_at) / RFU LINC00158 (11744669_a_at) / Fold change /veh LINC00158 (11744669_a_at) / RFU DUSP10 (11751237_a_at) / Fold change /veh DUSP10 (11751237_a_at) / RFU ID3 (11757404_x_at) / Fold change /veh ID3 (11757404_x_at) / RFU PLEKHG5 (11737974_s_at) / Fold change /veh PLEKHG5 (11737974_s_at) / RFU LRRC4B (11730491_at) / Fold change /veh LRRC4B (11730491_at) / RFU GIMAP4 (11747438_a_at) / Fold change /veh GIMAP4 (11747438_a_at) / RFU KRT8 (11758183_x_at) / Fold change /veh KRT8 (11758183_x_at) / RFU CNN1 (11734310_a_at) / Fold change /veh CNN1 (11734310_a_at) / RFU VPS37D (11726825_at) / Fold change /veh VPS37D (11726825_at) / RFU C10orf10 (11716522_x_at) / Fold change /veh C10orf10 (11716522_x_at) / RFU KIR2DL2 /// KIR2DL4 /// KIR2DL5A /// KIR2DL5B /// KIR2DS1 /// KIR2DS2 /// KIR2DS3 /// KIR2DS4 /// KIR3DL3 /// KIR3DL3 /// KIR3DS1 (11738374_at) / Fold change /veh KIR2DL2 /// KIR2DL4 /// KIR2DL5A /// KIR2DL5B /// KIR2DS1 /// KIR2DS2 /// KIR2DS3 /// KIR2DS4 /// KIR3DL3 /// KIR3DL3 /// KIR3DS1 (11738374_at) / RFU C1QL1 (11718748_at) / Fold change /veh C1QL1 (11718748_at) / RFU TMPRSS4 (11747572_a_at) / Fold change /veh TMPRSS4 (11747572_a_at) / RFU HAMP (11756126_x_at) / Fold change /veh HAMP (11756126_x_at) / RFU RNFT2 (11725882_a_at) / Fold change /veh RNFT2 (11725882_a_at) / RFU NR4A2 (11747474_a_at) / Fold change /veh NR4A2 (11747474_a_at) / RFU ABCC12 (11746883_a_at) / Fold change /veh ABCC12 (11746883_a_at) / RFU TMEM136 (11760407_x_at) / Fold change /veh TMEM136 (11760407_x_at) / RFU CLDN22 /// WWC2 (11732394_at) / Fold change /veh CLDN22 /// WWC2 (11732394_at) / RFU HLA-DPB1 (11760878_x_at) / Fold change /veh HLA-DPB1 (11760878_x_at) / RFU SPINT1 (11716480_a_at) / Fold change /veh SPINT1 (11716480_a_at) / RFU GAP43 (11754022_s_at) / Fold change /veh GAP43 (11754022_s_at) / RFU A4GNT (11735810_at) / Fold change /veh A4GNT (11735810_at) / RFU PRB3 (11715151_x_at) / Fold change /veh PRB3 (11715151_x_at) / RFU TUBB4B (11761932_at) / Fold change /veh TUBB4B (11761932_at) / RFU CAPN14 (11732068_a_at) / Fold change /veh CAPN14 (11732068_a_at) / RFU TMCC2 (11721928_a_at) / Fold change /veh TMCC2 (11721928_a_at) / RFU IRGQ (11745062_a_at) / Fold change /veh IRGQ (11745062_a_at) / RFU FAM174B (11720279_a_at) / Fold change /veh FAM174B (11720279_a_at) / RFU TMPRSS4 (11748680_a_at) / Fold change /veh TMPRSS4 (11748680_a_at) / RFU FAM212B (11763350_a_at) / Fold change /veh FAM212B (11763350_a_at) / RFU PLEKHG5 (11743358_a_at) / Fold change /veh PLEKHG5 (11743358_a_at) / RFU ZSCAN30 (11745921_a_at) / Fold change /veh ZSCAN30 (11745921_a_at) / RFU CMKLR1 (11741424_a_at) / Fold change /veh CMKLR1 (11741424_a_at) / RFU LOC101060620 /// MAPK8IP1 (11723275_at) / Fold change /veh LOC101060620 /// MAPK8IP1 (11723275_at) / RFU SPTSSB (11747773_x_at) / Fold change /veh SPTSSB (11747773_x_at) / RFU PRSS12 (11739890_at) / Fold change /veh PRSS12 (11739890_at) / RFU BIN1 (11741810_x_at) / Fold change /veh BIN1 (11741810_x_at) / RFU WNT11 (11732464_a_at) / Fold change /veh WNT11 (11732464_a_at) / RFU C10orf10 (11716521_a_at) / Fold change /veh C10orf10 (11716521_a_at) / RFU C5orf56 (11738089_at) / Fold change /veh C5orf56 (11738089_at) / RFU CYB561 (11721691_x_at) / Fold change /veh CYB561 (11721691_x_at) / RFU ANKRD19P (11752326_a_at) / Fold change /veh ANKRD19P (11752326_a_at) / RFU OR2T12 /// OR2T33 /// OR2T8 (11738714_s_at) / Fold change /veh OR2T12 /// OR2T33 /// OR2T8 (11738714_s_at) / RFU VCAN (11748164_a_at) / Fold change /veh VCAN (11748164_a_at) / RFU JSRP1 (11732532_at) / Fold change /veh JSRP1 (11732532_at) / RFU KRTAP10-11 (11738290_x_at) / Fold change /veh KRTAP10-11 (11738290_x_at) / RFU MYO3A (11730013_a_at) / Fold change /veh MYO3A (11730013_a_at) / RFU EBF3 (11725865_a_at) / Fold change /veh EBF3 (11725865_a_at) / RFU CAMK2N1 (11719241_x_at) / Fold change /veh CAMK2N1 (11719241_x_at) / RFU C5orf56 (11738088_a_at) / Fold change /veh C5orf56 (11738088_a_at) / RFU OLFML3 (11715873_a_at) / Fold change /veh OLFML3 (11715873_a_at) / RFU LOC100653217 /// NTM (11731650_a_at) / Fold change /veh LOC100653217 /// NTM (11731650_a_at) / RFU MAPK11 (11762145_a_at) / Fold change /veh MAPK11 (11762145_a_at) / RFU FIZ1 (11724087_x_at) / Fold change /veh FIZ1 (11724087_x_at) / RFU OASL (11726364_x_at) / Fold change /veh OASL (11726364_x_at) / RFU SOX15 (11748057_x_at) / Fold change /veh SOX15 (11748057_x_at) / RFU CD79A (11719716_a_at) / Fold change /veh CD79A (11719716_a_at) / RFU HIST1H1D (11736915_at) / Fold change /veh HIST1H1D (11736915_at) / RFU CASKIN2 (11723855_a_at) / Fold change /veh CASKIN2 (11723855_a_at) / RFU LOC730098 (11760151_x_at) / Fold change /veh LOC730098 (11760151_x_at) / RFU OR4N2 (11742367_at) / Fold change /veh OR4N2 (11742367_at) / RFU PRRT2 (11749266_a_at) / Fold change /veh PRRT2 (11749266_a_at) / RFU SNX32 (11753110_a_at) / Fold change /veh SNX32 (11753110_a_at) / RFU CDHR5 (11726645_a_at) / Fold change /veh CDHR5 (11726645_a_at) / RFU RCAN1 (11760418_a_at) / Fold change /veh RCAN1 (11760418_a_at) / RFU FAM167A (11723789_a_at) / Fold change /veh FAM167A (11723789_a_at) / RFU FAM26E (11764081_at) / Fold change /veh FAM26E (11764081_at) / RFU ISYNA1 (11749810_s_at) / Fold change /veh ISYNA1 (11749810_s_at) / RFU ACY1 (11761880_at) / Fold change /veh ACY1 (11761880_at) / RFU 11764098_at / Fold change /veh 11764098_at / RFU SAMD14 (11745864_x_at) / Fold change /veh SAMD14 (11745864_x_at) / RFU NPB (11741838_a_at) / Fold change /veh NPB (11741838_a_at) / RFU TMPRSS6 (11731388_a_at) / Fold change /veh TMPRSS6 (11731388_a_at) / RFU KRTAP10-2 (11738614_at) / Fold change /veh KRTAP10-2 (11738614_at) / RFU ARHGAP8 /// PRR5-ARHGAP8 (11727945_x_at) / Fold change /veh ARHGAP8 /// PRR5-ARHGAP8 (11727945_x_at) / RFU KRTAP5-7 /// NADSYN1 (11734609_at) / Fold change /veh KRTAP5-7 /// NADSYN1 (11734609_at) / RFU RASL12 (11751679_a_at) / Fold change /veh RASL12 (11751679_a_at) / RFU CDKN2B (11736163_a_at) / Fold change /veh CDKN2B (11736163_a_at) / RFU PRF1 (11729649_at) / Fold change /veh PRF1 (11729649_at) / RFU, ZNF638 /// ZNF638-IT1 / Fold change vs veh, ZNF638 /// ZNF638-IT1 / RFU, PANK3 / Fold change vs veh, PANK3 / RFU, SH3YL1 / Fold change vs veh, SH3YL1 / RFU, ZEB2 / Fold change vs veh, ZEB2 / RFU, NRIP1 / Fold change vs veh, NRIP1 / RFU, PTTG1IP / Fold change vs veh, PTTG1IP / RFU, CAPN2 / Fold change vs veh, CAPN2 / RFU, MED14 / Fold change vs veh, MED14 / RFU, SNORA58 / Fold change vs veh, SNORA58 / RFU, C1orf63 / Fold change vs veh, C1orf63 / RFU, LRRFIP1 / Fold change vs veh, LRRFIP1 / RFU, NDUFAF7 / Fold change vs veh, NDUFAF7 / RFU, SLC12A2 / Fold change vs veh, SLC12A2 / RFU, IBTK / Fold change vs veh, IBTK / RFU, ESF1 / Fold change vs veh, ESF1 / Fold change vs veh, TMEM50B / RFU, TAOK1 / Fold change vs veh, TAOK1 / RFU, ACBD3 / Fold change vs veh, ACBD3 / RFU, TMA16 / Fold change vs veh, TMA16 / RFU, RWDD3 / Fold change vs veh, RWDD3 / RFU, BCAT1 / Fold change vs veh, BCAT1 / RFU, EDEM3 / Fold change vs veh, EDEM3 / RFU, TMEM33 / Fold change vs veh, TMEM33 / RFU, WDR75 / Fold change vs veh, WDR75 / RFU, AHCTF1 / Fold change vs veh, AHCTF1 / RFU, TFRC / Fold change vs veh, TFRC / RFU, ZDHHC17 / Fold change vs veh, ZDHHC17 / RFU, NOM1 / Fold change vs veh, NOM1 / RFU, ARL8B / Fold change vs veh, ARL8B / RFU, ZBTB11 / Fold change vs veh, ZBTB11 / RFU, TAMM41 / Fold change vs veh, TAMM41 / RFU, KIAA1704 /// LOC100996395 / Fold change vs veh, KIAA1704 /// LOC100996395 / RFU, ING1 / Fold change vs veh, ING1 / RFU, TRMT61B / Fold change vs veh, TRMT61B / RFU, FUBP3 / Fold change vs veh, FUBP3 / RFU, TP53 / Fold change vs veh, TP53 / RFU, TNKS2 / Fold change vs veh, TNKS2 / RFU, ZFP14 / Fold change vs veh, ZFP14 / RFU, ACTR2 / Fold change vs veh, ACTR2 / RFU, PPP3R1 / Fold change vs veh, PPP3R1 / RFU, PIK3R1 / Fold change vs veh, PIK3R1 / RFU, HNRNPA1 / Fold change vs veh, HNRNPA1 / RFU, RNF170 / Fold change vs veh, RNF170 / RFU, ZNF28 / Fold change vs veh, ZNF28 / RFU, RNGTT / Fold change vs veh, RNGTT / RFU, OGT / Fold change vs veh, OGT / RFU, BRD1 / Fold change vs veh, BRD1 / RFU, MARS / Fold change vs veh, MARS / RFU, ZNF655 / Fold change vs veh, ZNF655 / RFU, FAHD1 / Fold change vs veh, FAHD1 / RFU, BDP1 / Fold change vs veh, BDP1 / RFU, LRRCC1 / Fold change vs veh, LRRCC1 / RFU, ARID1A / Fold change vs veh, ARID1A / RFU, ZNF146 / Fold change vs veh, ZNF146 / RFU, ZNF330 / Fold change vs veh, ZNF330 / RFU, GPN3 / Fold change vs veh, GPN3 / RFU, C9orf123 / Fold change vs veh, C9orf123 / RFU, N4BP2L2 / Fold change vs veh, N4BP2L2 / RFU, ARFIP1 / Fold change vs veh, ARFIP1 / RFU, FAM179B / Fold change vs veh, FAM179B / RFU, BCL10 / Fold change vs veh, BCL10 / RFU, UHRF1BP1L / Fold change vs veh, UHRF1BP1L / RFU, BET1 / Fold change vs veh, BET1 / RFU, CNOT2 / Fold change vs veh, CNOT2 / RFU, ZNF268 / Fold change vs veh, ZNF268 / Fold change vs veh, ZNF507 / RFU, DGCR2 / Fold change vs veh, DGCR2 / RFU, WDSUB1 / Fold change vs veh, WDSUB1 / Fold change vs veh, HSP90B1 /// MIR3652 / RFU, ADSS / Fold change vs veh, ADSS / RFU, GK / Fold change vs veh, GK / RFU, ZNF148 / Fold change vs veh, ZNF148 / RFU, TAF9 / Fold change vs veh, TAF9 / RFU, SLC1A5 / Fold change vs veh, SLC1A5 / RFU, SLMO2 / Fold change vs veh, SLMO2 / RFU, ABCC4 / Fold change vs veh, ABCC4 / RFU, LOC101060439 /// RAP1B / Fold change vs veh, LOC101060439 /// RAP1B / RFU, RFX7 / Fold change vs veh, RFX7 / RFU, GTPBP10 / Fold change vs veh, GTPBP10 / RFU, CNEP1R1 / Fold change vs veh, CNEP1R1 / RFU, BIVM-ERCC5 /// ERCC5 / Fold change vs veh, BIVM-ERCC5 /// ERCC5 / RFU, ILF3 / Fold change vs veh, ILF3 / RFU 11762660_at / Fold change /veh 11762660_at / RFU VCAN (11757783_s_at) / Fold change /veh VCAN (11757783_s_at) / RFU DDX43 (11728927_at) / Fold change /veh DDX43 (11728927_at) / RFU KRT8 (11758188_x_at) / Fold change /veh KRT8 (11758188_x_at) / RFU NKD1 (11759106_at) / Fold change /veh NKD1 (11759106_at) / RFU SRD5A1 (11742802_a_at) / Fold change /veh SRD5A1 (11742802_a_at) / RFU TPSAB1 /// TPSB2 (11721975_s_at) / Fold change /veh TPSAB1 /// TPSB2 (11721975_s_at) / RFU GSTM3 (11746129_a_at) / Fold change /veh GSTM3 (11746129_a_at) / RFU IL23R (11737362_x_at) / Fold change /veh IL23R (11737362_x_at) / RFU TMEM51 (11727254_a_at) / Fold change /veh TMEM51 (11727254_a_at) / RFU PIWIL2 (11732686_x_at) / Fold change /veh PIWIL2 (11732686_x_at) / RFU ORM1 (11744905_x_at) / Fold change /veh ORM1 (11744905_x_at) / RFU CCDC152 (11743942_at) / Fold change /veh CCDC152 (11743942_at) / RFU ECM1 (11717891_a_at) / Fold change /veh ECM1 (11717891_a_at) / RFU IL23R (11748794_a_at) / Fold change /veh IL23R (11748794_a_at) / RFU TNFAIP8L3 (11732012_x_at) / Fold change /veh TNFAIP8L3 (11732012_x_at) / RFU MBOAT4 (11741988_at) / Fold change /veh MBOAT4 (11741988_at) / RFU 11764193_at / Fold change /veh 11764193_at / RFU TMEM53 (11763286_at) / Fold change /veh TMEM53 (11763286_at) / RFU MAGEB2 (11727129_at) / Fold change /veh MAGEB2 (11727129_at) / RFU TMEM200A (11744735_a_at) / Fold change /veh TMEM200A (11744735_a_at) / RFU CCDC152 (11751479_a_at) / Fold change /veh CCDC152 (11751479_a_at) / RFU FAM211A (11726209_a_at) / Fold change /veh FAM211A (11726209_a_at) / RFU RGS16 (11746705_a_at) / Fold change /veh RGS16 (11746705_a_at) / RFU VCAN (11755009_s_at) / Fold change /veh VCAN (11755009_s_at) / RFU RHOB (11743442_s_at) / Fold change /veh RHOB (11743442_s_at) / RFU RGS16 (11720943_a_at) / Fold change /veh RGS16 (11720943_a_at) / RFU RGS16 (11720944_at) / Fold change /veh RGS16 (11720944_at) / RFU, VPS4B / Fold change vs veh, VPS4B / RFU, CREB1 / Fold change vs veh, CREB1 / RFU, DNAJC13 / Fold change vs veh, DNAJC13 / RFU, GNAQ / Fold change vs veh, GNAQ / RFU, CDK5R1 / Fold change vs veh, CDK5R1 / RFU, ZRANB3 / Fold change vs veh, ZRANB3 / RFU, CUL4A / Fold change vs veh, CUL4A / RFU, CCNY / Fold change vs veh, CCNY / RFU, UFL1 / Fold change vs veh, UFL1 / RFU, COG3 / Fold change vs veh, COG3 / RFU, DIAPH2 / Fold change vs veh, DIAPH2 / RFU, SKA2 / Fold change vs veh, SKA2 / RFU, AFF3 / Fold change vs veh, AFF3 / RFU, LMF1 / Fold change vs veh, LMF1 / RFU, IPO11 / Fold change vs veh, IPO11 / RFU, DFFB / Fold change vs veh, DFFB / RFU, FOXP1 / Fold change vs veh, FOXP1 / RFU, CARD8 / Fold change vs veh, CARD8 / RFU, STRN3 / Fold change vs veh, STRN3 / RFU, ADK / Fold change vs veh, ADK / RFU, RASSF2 / Fold change vs veh, RASSF2 / RFU, WIPF1 / Fold change vs veh, WIPF1 / RFU, LARP1B / Fold change vs veh, LARP1B / RFU, RASA1 / Fold change vs veh, RASA1 / RFU, RB1 / Fold change vs veh, RB1 / RFU, PPFIA1 / Fold change vs veh, PPFIA1 / RFU, MAT2A / Fold change vs veh, MAT2A / RFU, CCT5 / Fold change vs veh, CCT5 / RFU, WDR92 / Fold change vs veh, WDR92 / RFU, CUX1 / Fold change vs veh, CUX1 / RFU, TTC7A / Fold change vs veh, TTC7A / RFU, TMEM135 / Fold change vs veh, TMEM135 / RFU, DEPTOR / Fold change vs veh, DEPTOR / RFU, CPM / Fold change vs veh, CPM / RFU, DNAJB6 / Fold change vs veh, DNAJB6 / RFU, CACNA2D3 / Fold change vs veh, CACNA2D3 / RFU, DTX4 / Fold change vs veh, DTX4 / RFU, TFCP2 / Fold change vs veh, TFCP2 / RFU, GMCL1 /// GMCL1P1 / Fold change vs veh, GMCL1 /// GMCL1P1 / RFU, AEBP2 / Fold change vs veh, AEBP2 / RFU, SNHG1 /// SNORD22 /// SNORD25 /// SNORD26 /// SNORD27 /// SNORD28 /// SNORD29 /// SNORD31 / Fold change vs veh, SNHG1 /// SNORD22 /// SNORD25 /// SNORD26 /// SNORD27 /// SNORD28 /// SNORD29 /// SNORD31 / Fold change (Aza/veh), C12orf56 (ProbeSet 11735607_a_at) / Fold change (ACY-1035/veh), C12orf56 (ProbeSet 11735607_a_at) / Fold change (Aza/veh), FGFR1OP (ProbeSet 11751329_s_at) / Fold change (ACY-1035/veh), FGFR1OP (ProbeSet 11751329_s_at) / Fold change (Aza/veh), VPS36 (ProbeSet 11739960_a_at) / Fold change (ACY-1035/veh), VPS36 (ProbeSet 11739960_a_at) / RFU SYPL1 (11715823_x_at) / Fold change /veh SYPL1 (11715823_x_at) / RFU IGFBP7 (11715501_s_at) / Fold change /veh IGFBP7 (11715501_s_at) / RFU REEP3 (11722064_at) / Fold change /veh REEP3 (11722064_at) / RFU IGLL1 (11728026_x_at) / Fold change /veh IGLL1 (11728026_x_at): dose or concentration left out as unconfirmed
Settings: MV-4-11 cells, 48 hours

## Nc1ccc(-c2cccs2)cc1NC(=O)c1ccc2c(c1)cc(C1CC1)n2CCN1CCOCC1 [ACY-1035]
  Fold change /veh TNFAIP8L3 (11732012_x_at): 1.18
